Assay results as given in patent US8119644B2, “Thiadiazole-substituted arylamides as P2X3 and P2X2/3 antagonists” (Roche Palo Alto LLP, priority 2008, dated 2012).

Experiments:
[1] = target: T1, human P2X2/3 receptor (Homo sapiens, UniProt P56373+Q9UBL9); assay: P2X2/3 FLIPR (Fluorometric Imaging Plate Reader) assay, CHO-K1 cells; format: cell-based; details: CHO-K1 cells transfected with human P2X2/3; agonist α,β-meATP 5 μM; Fluo-3 calcium fluorescence; read-out: P2X2/3 (pKi) (converted)
T1 construct: expressed in transfected cells; host or cells: CHO-K1
T1 sequence (Q9UBL9 1-471): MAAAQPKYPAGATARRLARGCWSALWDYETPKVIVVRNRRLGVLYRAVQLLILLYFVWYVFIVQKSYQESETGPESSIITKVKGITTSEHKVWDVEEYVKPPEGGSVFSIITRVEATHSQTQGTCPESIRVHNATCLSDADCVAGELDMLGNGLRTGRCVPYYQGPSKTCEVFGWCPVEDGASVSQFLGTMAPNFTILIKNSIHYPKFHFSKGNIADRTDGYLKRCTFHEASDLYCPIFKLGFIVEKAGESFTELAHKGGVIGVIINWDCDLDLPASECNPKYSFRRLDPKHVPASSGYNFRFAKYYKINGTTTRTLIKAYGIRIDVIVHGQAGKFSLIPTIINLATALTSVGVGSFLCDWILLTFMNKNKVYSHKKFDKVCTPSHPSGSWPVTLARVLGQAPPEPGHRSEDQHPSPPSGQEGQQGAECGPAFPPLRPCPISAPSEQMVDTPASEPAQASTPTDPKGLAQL
T1 sequence (P56373 1-397): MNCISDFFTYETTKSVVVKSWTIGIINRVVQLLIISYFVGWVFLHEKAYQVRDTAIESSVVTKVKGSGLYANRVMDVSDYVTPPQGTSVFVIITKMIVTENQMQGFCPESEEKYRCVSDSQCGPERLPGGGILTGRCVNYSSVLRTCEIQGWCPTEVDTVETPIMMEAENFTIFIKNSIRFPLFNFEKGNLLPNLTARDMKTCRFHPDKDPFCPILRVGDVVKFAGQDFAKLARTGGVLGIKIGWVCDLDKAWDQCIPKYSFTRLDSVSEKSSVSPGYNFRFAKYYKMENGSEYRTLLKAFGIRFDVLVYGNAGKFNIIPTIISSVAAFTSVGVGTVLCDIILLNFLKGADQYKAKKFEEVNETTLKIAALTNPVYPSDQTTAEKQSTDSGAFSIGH
Method: (§1) P2X3/P2X2/3 FLIPR (Fluorometric Imaging Plate Reader) Assay
(§2) CHO-K1 cells were transfected with cloned rat P2X3 or human P2X2/3 receptor subunits and passaged in flasks. 18-24 hours before the FLIPR experiment, cells were released from their flasks, centrifuged, and resuspended in nutrient medium at 2.5×10^5 cells/ml. The cells were aliquoted into black-walled 96-well plates at a density of 50,000 cells/well and incubated overnight in 5% CO2 at 37° C. On the day of the experiment, cells were washed in FLIPR buffer (calcium- and magnesium-free Hank's balanced salt solution, 10 mM HEPES, 2 mM CaCl2, 2.5 mM probenecid; FB). Each well received 100 μl FB and 100 μl of the fluorescent dye Fluo-3 AM [2 μM final conc.]. After a 1 hour dye loading incubation at 37° C., the cells were washed 4 times with FB, and a final 75 μl/well FB was left in each well.
(§3) Test compounds (dissolved in DMSO at 10 mM and serially diluted with FB) or vehicle were added to each well (25 μl of a 4× solution) and allowed to equilibrate for 20 minutes at room temperature. The plates were then placed in the FLIPR and a baseline fluorescence measurement (excitation at 488 nm and emission at 510-570 nm) was obtained for 10 seconds before a 100 μl/well agonist or vehicle addition. The agonist was a 2× solution of α,β-meATP producing a final concentration of 1 μM (P2X3) or 5 μM (P2X2/3). Fluorescence was measured for an additional 2 minutes at 1 second intervals after agonist addition. A final addition of ionomycin (5 μM, final concentration) was made to each well of the FLIPR test plate to establish cell viability and maximum fluorescence of dye-bound cytosolic calcium. Peak fluorescence in response to the addition of α,β-meATP (in the absence and presence of test compounds) was measured and inhibition curves generated using nonlinear regression. PPADS, a standard P2X antagonist, was used as a positive control.

[2] = target: T2, rat P2X3 receptor (Rattus norvegicus, UniProt P49654); assay: P2X3 FLIPR (Fluorometric Imaging Plate Reader) assay, CHO-K1 cells; format: cell-based; details: CHO-K1 cells transfected with cloned rat P2X3; agonist α,β-meATP 1 μM; Fluo-3 calcium fluorescence; read-out: P2X3 (pKi) (converted)
T2 construct: expressed in transfected cells; host or cells: CHO-K1
T2 sequence (P49654 1-397): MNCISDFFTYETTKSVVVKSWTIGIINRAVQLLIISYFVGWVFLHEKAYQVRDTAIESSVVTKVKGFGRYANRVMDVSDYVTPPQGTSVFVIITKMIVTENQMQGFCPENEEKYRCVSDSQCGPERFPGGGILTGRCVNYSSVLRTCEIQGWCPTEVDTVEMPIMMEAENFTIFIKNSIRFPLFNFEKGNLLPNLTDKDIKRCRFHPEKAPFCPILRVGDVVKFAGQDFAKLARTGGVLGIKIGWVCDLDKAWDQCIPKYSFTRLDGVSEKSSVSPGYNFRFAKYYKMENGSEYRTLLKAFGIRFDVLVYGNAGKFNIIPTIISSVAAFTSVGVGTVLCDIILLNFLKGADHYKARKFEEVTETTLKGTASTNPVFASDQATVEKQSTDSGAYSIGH
Method: as §1, §2, §3

Ki [1] [nM]	Ki [2] [nM]	SMILES
72.4	6.92	Cc1ccc(-c2cc(C(=O)N[C@H](C)CO)cc(-c3nsnc3C(C)C)c2)nc1 [Compound 1, N-((R)-2-Hydroxy-1-methyl-ethyl)-3-(4-isopropyl-[1,2,5]thiadiazol-3-yl)-5-(5-methyl-pyridin-2-yl)-benzamide]
214	4.27	Cc1ccc(-c2cc(C(=O)N[C@H](C)CO)cc(-c3snnc3C(C)C)c2)nc1 [Compound 4, N-((R)-2-Hydroxy-1-methyl-ethyl)-3-(4-isopropyl-[1,2,3]thiadiazol-5-yl)-5-(5-methyl-pyridin-2-yl)-benzamide]

Continued, molecule first:

SMILES	Ki [1] [nM]	Ki [2] [nM]
COCC(C)NC(=O)c1cc(-c2ccc(C)cc2)cc(-c2csnn2)c1 (stereo not shown) [Compound 2, 4′-Methyl-5-[1,2,3]thiadiazol-4-yl-biphenyl-3-carboxylic acid (2-methoxy-1-methyl-ethyl)-amide]	–	4680
Cc1ccc(-c2cc(C(=O)NCc3cnc(C)cn3)cc(-c3snnc3C(C)C)c2)nc1 [Compound 3, 3-(4-Isopropyl-[1,2,3]thiadiazol-5-yl)-N-(5-methyl-pyrazin-2-ylmethyl)-5-(5-methyl-pyridin-2-yl)-benzamide]	37.2	9.12
Cc1ccc(-c2cc(C(=O)NCc3cnc(C)nc3)cc(-c3snnc3C(C)C)c2)nc1 [Compound 5, 3-(4-Isopropyl-[1,2,3]thiadiazol-5-yl)-5-(5-methyl-pyridin-2-yl)-N-(2-methyl-pyrimidin-5-ylmethyl)-benzamide]	33.9	8.91
Cc1ccc(-c2cc(C(=O)NCc3ncc(C)cn3)cc(-c3snnc3C(C)C)c2)nc1 [Compound 6, 3-(4-Isopropyl-[1,2,3]thiadiazol-5-yl)-5-(5-methyl-pyridin-2-yl)-N-(5-methyl-pyrimidin-2-ylmethyl)-benzamide]	105	16.6
Cc1ccc(-c2cc(C(=O)NCc3cnc(C)cn3)cc(-c3nsnc3C(C)C)c2)nc1 [Compound 7, 3-(4-Isopropyl-[1,2,5]thiadiazol-3-yl)-N-(5-methyl-pyrazin-2-ylmethyl)-5-(5-methyl-pyridin-2-yl)-benzamide]	43.7	18.2
